Converted amounts (≈) assume the structure as drawn.
Columns and labels:
Rhizopus (Ceylon) [1] = assay: MIC determination (NCCLS broth method); type: cell-based; details: read-out: Minimum Inhibitory Concentration (MIC)
From the text: (§1) The in-vitro evaluation of the antifungal activity of the compounds can be performed by determining the minimum inhibitory concentration (MIC) as shown in Table 1 which is the concentration of the test compound in Rosewell Park Memorial Institute (RPMI) 1640 liquid medium buffered with 3-(Morpholino)propanesulphonic acid (MOPS) to pH 7, at which there is significant inhibition of the particular fungi. In practice the National Committee for Clinical Laboratory Standard (NCCLS) M27A document for Candida and Cryptococcus and M38P for Aspergillus was used to determine the MIC against yeast and filamentous fungi with suitable modifications for dermatophytes to other filamentous fungi. Three quality control strains were included each time the MIC were determined and readings recorded only when the Quality Control results fell into the acceptable range. After MIC results had been recorded, 100 μl from each of the well showing no growth was spread over Sabouraud Dextrose Agar (SDA) to determine the minimum fungicidal concentration (MFC) as shown in Table 2.

C krusei 766.1 = assay: MIC determination (NCCLS broth method); type: cell-based; details: read-out: Minimum Inhibitory Concentration (MIC)
From the text: as §1

Fusarium 2960C = assay: MIC determination (NCCLS broth method); type: cell-based; details: read-out: Minimum Inhibitory Concentration (MIC)
From the text: as §1

Penicillium H - 1048 [2] = assay: MIC determination (NCCLS broth method); type: cell-based; details: H1048, read-out: Minimum Inhibitory Concentration (MIC)
From the text: as §1

A flavus P3 - 1041 [3] = assay: MIC determination (NCCLS broth method); type: cell-based; details: read-out: Minimum Inhibitory Concentration (MIC)
From the text: as §1

C tropicalis 750 = assay: MIC determination (NCCLS broth method); type: cell-based; details: read-out: Minimum Inhibitory Concentration (MIC)
From the text: as §1

Penicillium 1641 [4] = assay: MIC determination (NCCLS broth method); type: cell-based; details: read-out: Minimum Inhibitory Concentration (MIC)
From the text: as §1

Penicillium 191 = assay: MFC determination (subculture on Sabouraud Dextrose Agar); type: cell-based; details: read-out: Minimum Fungicidal Concentration (MFC)
From the text: as §1

Fusarium 29600 = assay: as above; type: cell-based; details: Fusarium, 29600, read-out: Minimum Fungicidal Concentration (MFC)
From the text: as §1

A niger P1 - 1046 = assay: as above; type: cell-based; details: read-out: Minimum Fungicidal Concentration (MFC)
From the text: as §1

A flavus E4 - 1042 = assay: as above; type: cell-based; details: read-out: Minimum Fungicidal Concentration (MFC)
From the text: as §1

C krusei 6258 = assay: as above; type: cell-based; details: read-out: Minimum Fungicidal Concentration (MFC)
From the text: as §1

Mucor (Ceylon) = assay: as above; type: cell-based; details: read-out: Minimum Fungicidal Concentration (MFC)
From the text: as §1

Rhizopus (Ceylon) [5] = assay: as above; type: cell-based; details: read-out: Minimum Fungicidal Concentration (MFC)
From the text: as §1

Penicillium 2306 = assay: as above; type: cell-based; details: read-out: Minimum Fungicidal Concentration (MFC)
From the text: as §1

C parapsilosis 22019 = assay: as above; type: cell-based; details: read-out: Minimum Fungicidal Concentration (MFC)
From the text: as §1

A niger E5 - 1047 = assay: as above; type: cell-based; details: read-out: Minimum Fungicidal Concentration (MFC)
From the text: as §1

Fusarium (Ceylon) = assay: as above; type: cell-based; details: read-out: Minimum Fungicidal Concentration (MFC)
From the text: as §1

A flavus E3 - 1044 = assay: as above; type: cell-based; details: read-out: Minimum Fungicidal Concentration (MFC)
From the text: as §1

Alternaria 1051 = assay: as above; type: cell-based; details: read-out: Minimum Fungicidal Concentration (MFC)
From the text: as §1

Penicillium I - 1049 = assay: as above; type: cell-based; details: I1049, read-out: Minimum Fungicidal Concentration (MFC)
From the text: as §1

Rhizopus 1052 = assay: as above; type: cell-based; details: read-out: Minimum Fungicidal Concentration (MFC)
From the text: as §1

Fusarium 18270 = assay: as above; type: cell-based; details: Fusarium, 18270, read-out: Minimum Fungicidal Concentration (MFC)
From the text: as §1

Penicillium 2548 = assay: as above; type: cell-based; details: read-out: Minimum Fungicidal Concentration (MFC)
From the text: as §1

Penicillium 31620 = assay: as above; type: cell-based; details: read-out: Minimum Fungicidal Concentration (MFC)
From the text: as §1

A flavus P2 - 1045 = assay: as above; type: cell-based; details: read-out: Minimum Fungicidal Concentration (MFC)
From the text: as §1

Penicillium H - 1048 [6] = assay: as above; type: cell-based; details: H1048, read-out: Minimum Fungicidal Concentration (MFC)
From the text: as §1

A flavus P3 - 1041 [7] = assay: as above; type: cell-based; details: read-out: Minimum Fungicidal Concentration (MFC)
From the text: as §1

Penicillium 1641 [8] = assay: as above; type: cell-based; details: read-out: Minimum Fungicidal Concentration (MFC)
From the text: as §1

C albicans Y01.19 = assay: MIC determination (NCCLS broth method); type: cell-based, Candida albicans; details: Candida albicans, read-out: Minimum Inhibitory Concentration (MIC)
From the text: as §1

C albicans A-26 = assay: MIC determination (NCCLS broth method); type: cell-based, Candida albicans; details: Candida albicans, A26, read-out: Minimum Inhibitory Concentration (MIC)
From the text: as §1

A fumigatus K - 1033 = assay: MIC determination (NCCLS broth method); type: cell-based, Aspergillus fumigatus; details: Aspergillus fumigatus, K1033, read-out: Minimum Inhibitory Concentration (MIC)
From the text: as §1

A fumigatus PGI - 1023 = assay: MIC determination (NCCLS broth method); type: cell-based, Aspergillus fumigatus; details: Aspergillus fumigatus, PGI1023, read-out: Minimum Inhibitory Concentration (MIC)
From the text: as §1

A fumigatus L - 1034 = assay: MIC determination (NCCLS broth method); type: cell-based, Aspergillus fumigatus; details: Aspergillus fumigatus, L1034, read-out: Minimum Inhibitory Concentration (MIC)
From the text: as §1

A fumigatus SI-1 - 1019 [9] = assay: MIC determination (NCCLS broth method); type: cell-based, Aspergillus fumigatus; details: Aspergillus fumigatus, SI11019, read-out: Minimum Inhibitory Concentration (MIC)
From the text: as §1

A fumigatus J - 1032 = assay: MIC determination (NCCLS broth method); type: cell-based, Aspergillus fumigatus; details: Aspergillus fumigatus, J1032, read-out: Minimum Inhibitory Concentration (MIC)
From the text: as §1

A fumigatus II - 1012 = assay: MIC determination (NCCLS broth method); type: cell-based, Aspergillus fumigatus; details: Aspergillus fumigatus, II1012, read-out: Minimum Inhibitory Concentration (MIC)
From the text: as §1

A fumigatus I - 1011 = assay: MIC determination (NCCLS broth method); type: cell-based, Aspergillus fumigatus; details: Aspergillus fumigatus, I1011, read-out: Minimum Inhibitory Concentration (MIC)
From the text: as §1

A fumigatus 1008 [10] = assay: MIC determination (NCCLS broth method); type: cell-based, Aspergillus fumigatus; details: Aspergillus fumigatus, read-out: Minimum Inhibitory Concentration (MIC)
From the text: as §1

Penicilliuim 2306 = assay: MIC determination (NCCLS broth method); type: cell-based, Penicillium; details: Penicillium, read-out: Minimum Inhibitory Concentration (MIC)
From the text: as §1

P variotii 22319 = assay: MIC determination (NCCLS broth method); type: cell-based, Paecillomyces variotii; details: read-out: Minimum Inhibitory Concentration (MIC)
From the text: as §1

C neoformans I = assay: MIC determination (NCCLS broth method); type: cell-based, Cryptococcus neoformans; details: Cryptococcus neoformans, read-out: Minimum Inhibitory Concentration (MIC)
From the text: as §1

C neoformans M-106 = assay: MIC determination (NCCLS broth method); type: cell-based, Cryptococcus neoformans; details: Cryptococcus neoformans, M106, read-out: Minimum Inhibitory Concentration (MIC)
From the text: as §1

A fumigatus SI-1 - 1019 [11] = assay: MFC determination (subculture on Sabouraud Dextrose Agar); type: cell-based, Aspergillus fumigatus; details: Aspergillus fumigatus, SI11019, read-out: Minimum Fungicidal Concentration (MFC)
From the text: as §1

A fumigatus 1008 [12] = assay: as above; type: cell-based, Aspergillus fumigatus; details: Aspergillus fumigatus, read-out: Minimum Fungicidal Concentration (MFC)
From the text: as §1

OC(Cn1cncn1)(Cn1cncn1)c1ccc(F)cc1F [Fluconazole]
MIC (Rhizopus (Ceylon) [1]): > 128 µg/mL
MIC (C krusei 766.1): 128 µg/mL (≈ 418 µM)
MIC (Fusarium 2960C): > 128 µg/mL
MIC (Penicillium H - 1048 [2]): > 128 µg/mL
MIC (A flavus P3 - 1041 [3]): > 128 µg/mL
MIC (C tropicalis 750): 0.5 µg/mL (≈ 1.63 µM)
MIC (Penicillium 1641 [4]): 64 µg/mL (≈ 209 µM)
MFC (Penicillium 191): > 128 µg/mL
MFC (Fusarium 29600): > 128 µg/mL
MFC (A niger P1 - 1046): > 128 µg/mL
MFC (A flavus E4 - 1042): > 128 µg/mL
MFC (C krusei 6258): 128 µg/mL (≈ 418 µM)
MFC (Mucor (Ceylon)): > 128 µg/mL
MFC (Rhizopus (Ceylon) [5]): > 128 µg/mL
MFC (Penicillium 2306): > 128 µg/mL
MFC (C parapsilosis 22019): 4 µg/mL (≈ 13.1 µM)
MFC (A niger E5 - 1047): > 128 µg/mL
MFC (Fusarium (Ceylon)): > 128 µg/mL
MFC (A flavus E3 - 1044): > 128 µg/mL
MFC (Alternaria 1051): > 128 µg/mL
MFC (Penicillium I - 1049): > 128 µg/mL
MFC (Rhizopus 1052): > 128 µg/mL
MFC (Fusarium 18270): > 128 µg/mL
MFC (Penicillium 2548): > 128 µg/mL
MFC (Penicillium 31620): > 128 µg/mL
MFC (A flavus P2 - 1045): > 128 µg/mL
MFC (Penicillium H - 1048 [6]): > 128 µg/mL
MFC (A flavus P3 - 1041 [7]): > 128 µg/mL
MFC (Penicillium 1641 [8]): > 128 µg/mL
MIC (C albicans Y01.19): 8 µg/mL (≈ 26.1 µM)
MIC (C albicans A-26): 0.5 µg/mL (≈ 1.63 µM)
MIC (A fumigatus K - 1033): > 128 µg/mL
MIC (A fumigatus PGI - 1023): > 128 µg/mL
MIC (A fumigatus L - 1034): > 128 µg/mL
MIC (A fumigatus SI-1 - 1019 [9]): > 128 µg/mL
MIC (A fumigatus J - 1032): > 128 µg/mL
MIC (A fumigatus II - 1012): > 128 µg/mL
MIC (A fumigatus I - 1011): > 128 µg/mL
MIC (A fumigatus 1008 [10]): > 128 µg/mL
MIC (Penicilliuim 2306): > 128 µg/mL
MIC (P variotii 22319): > 128 µg/mL
MIC (C neoformans I): 1 µg/mL (≈ 3.27 µM)
MIC (C neoformans M-106): 4 µg/mL (≈ 13.1 µM)
MFC (A fumigatus SI-1 - 1019 [11]): > 128 µg/mL
MFC (A fumigatus 1008 [12]): > 128 µg/mL

— patent publication US6710049B2, “Azole compounds as anti-fungal agents” (Ranbaxy Laboratories Limited, priority 2000, dated 2004)
